Test results: publication PMC6155239, “Targeting PFKFB3 radiosensitizes cancer cells and suppresses homologous recombination” (Nature Communications, 2018)

Experiments:
FLT3 = target: T1, FLT3 (Homo sapiens, UniProt P36888); test: KINOMEscan; format: binding; conditions: 2000 nM; read-out: Percent Control
T1 construct: purchased DiscoverX (Eurofins) KINOMEscan / scanEDGE, inferred from the naming style

PFKFB4 = PFKFB4 (Homo sapiens, UniProt Q16877); test: ADP-Glo kinase activity assay, PFKFB4; format: biochemical
Chain of PFKFB4 (Q16877 whole entry, species assumed): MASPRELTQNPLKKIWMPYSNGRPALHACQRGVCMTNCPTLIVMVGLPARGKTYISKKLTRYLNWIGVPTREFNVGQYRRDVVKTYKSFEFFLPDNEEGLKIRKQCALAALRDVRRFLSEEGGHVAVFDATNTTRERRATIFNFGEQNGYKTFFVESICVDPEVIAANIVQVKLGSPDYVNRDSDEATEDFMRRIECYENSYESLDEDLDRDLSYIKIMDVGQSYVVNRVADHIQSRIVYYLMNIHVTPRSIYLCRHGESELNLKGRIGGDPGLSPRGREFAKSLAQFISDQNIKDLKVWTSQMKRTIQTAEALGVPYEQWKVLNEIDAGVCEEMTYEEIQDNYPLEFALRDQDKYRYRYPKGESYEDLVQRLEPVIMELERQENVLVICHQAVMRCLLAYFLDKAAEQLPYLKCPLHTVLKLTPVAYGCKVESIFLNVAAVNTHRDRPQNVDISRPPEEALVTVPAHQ
Procedure: The kinase activity of the bi-functional enzyme was quantified based on the production of ADP and F-2,6-P2 from ATP by ADP-GloTM Kinase Assay (Promega). The assay was performed in two steps; first, after the kinase reaction, an equal volume of ADP-GloTM Reagent was added to terminate the kinase reaction and deplete the remaining ATP. Second, the Kinase Detection Reagent was added to simultaneously convert ADP to ATP and allow the newly synthesized ATP to be measured using a luciferase/luciferin reaction. The light generated was measured using a luminescence counter (1450 MicroBeta TriLux). The assay was performed in white 384-well plates (OptiPlate, 6007299, PerkinElmer) by consecutive additions of a test compound solution (0.1 µL, serial diluted in DMSO from compound DMSO stock solution and dispensed by acoustic dispensing from UV-star 384-well plate 7360153, VWR), enzyme solution (5 µL) and substrate (fructose-6-phosphate (F6P) and adenosine-5′-triphosphate (ATP)) containing solution (5 µL). […] Four reference dose–response curves, one of them being the QC compound, were included and serial diluted as the test compounds. […] The inhibitory potency or IC50 values of test compounds on the kinase activity of the enzymes were calculated using a four-parameter model (model 205) in XLfit (IDBS ActivityBase XE Runner).

PFKFB3 = PFKFB3 (Homo sapiens, UniProt Q16875); test: Isothermal titration calorimetry; format: binding; conditions: 25 °C
Chain of PFKFB3 (Q16875 whole entry): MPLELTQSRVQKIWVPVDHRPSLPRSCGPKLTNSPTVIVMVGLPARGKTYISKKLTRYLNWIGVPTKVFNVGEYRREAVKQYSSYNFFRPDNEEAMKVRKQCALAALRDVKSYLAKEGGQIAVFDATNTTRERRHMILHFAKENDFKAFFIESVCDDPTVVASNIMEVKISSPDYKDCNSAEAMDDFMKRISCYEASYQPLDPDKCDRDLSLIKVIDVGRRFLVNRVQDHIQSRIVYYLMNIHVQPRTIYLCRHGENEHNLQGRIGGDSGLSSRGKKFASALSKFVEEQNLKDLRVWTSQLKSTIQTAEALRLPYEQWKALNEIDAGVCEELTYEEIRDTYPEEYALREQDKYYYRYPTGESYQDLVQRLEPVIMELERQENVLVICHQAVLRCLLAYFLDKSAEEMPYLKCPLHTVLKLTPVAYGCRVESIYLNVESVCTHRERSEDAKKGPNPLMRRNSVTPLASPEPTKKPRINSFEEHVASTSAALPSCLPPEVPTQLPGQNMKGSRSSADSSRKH
Procedure: ITC was performed for the titration of 200 μM KAN0438241 into 20 μM PFKFB3 protein. Raw ITC data was recorded for 12 × 3 μl injections (preceded by 0.4 μl injection). Data was collected with PEAQ-ITC system (MicroCal™, Malvern Instruments) at 25 °C, 10 μcal/s Reference Power, High Feedback, and 750 rpm stirring rate. A constant value of the heat of dilution was fitted along with the binding parameters. Data analysis performed with dedicated PEAQ-ITC analysis software (MicroCal, Malvern Instruments).

ABL1-phosphorylated = target: T2, ABL1-phosphorylated (Homo sapiens, UniProt P00519); test: KINOMEscan; format: binding; conditions: 2000 nM; read-out: Percent Control
T2 construct: purchased DiscoverX (Eurofins) KINOMEscan / scanEDGE, inferred from the naming style

[1] = target: T3, ABL1(T315I)-phosphorylated (Homo sapiens, UniProt P00519, T315I); test: KINOMEscan; format: binding; conditions: 2000 nM; read-out: Percent Control
T3 construct: purchased DiscoverX (Eurofins) KINOMEscan / scanEDGE, inferred from the naming style

DYRK1B = target: T4, DYRK1B (Homo sapiens, UniProt Q9Y463); test: KINOMEscan; format: binding; conditions: 2000 nM; read-out: Percent Control
T4 construct: purchased DiscoverX (Eurofins) KINOMEscan / scanEDGE, inferred from the naming style
T4 sequence (Q9Y463 whole entry): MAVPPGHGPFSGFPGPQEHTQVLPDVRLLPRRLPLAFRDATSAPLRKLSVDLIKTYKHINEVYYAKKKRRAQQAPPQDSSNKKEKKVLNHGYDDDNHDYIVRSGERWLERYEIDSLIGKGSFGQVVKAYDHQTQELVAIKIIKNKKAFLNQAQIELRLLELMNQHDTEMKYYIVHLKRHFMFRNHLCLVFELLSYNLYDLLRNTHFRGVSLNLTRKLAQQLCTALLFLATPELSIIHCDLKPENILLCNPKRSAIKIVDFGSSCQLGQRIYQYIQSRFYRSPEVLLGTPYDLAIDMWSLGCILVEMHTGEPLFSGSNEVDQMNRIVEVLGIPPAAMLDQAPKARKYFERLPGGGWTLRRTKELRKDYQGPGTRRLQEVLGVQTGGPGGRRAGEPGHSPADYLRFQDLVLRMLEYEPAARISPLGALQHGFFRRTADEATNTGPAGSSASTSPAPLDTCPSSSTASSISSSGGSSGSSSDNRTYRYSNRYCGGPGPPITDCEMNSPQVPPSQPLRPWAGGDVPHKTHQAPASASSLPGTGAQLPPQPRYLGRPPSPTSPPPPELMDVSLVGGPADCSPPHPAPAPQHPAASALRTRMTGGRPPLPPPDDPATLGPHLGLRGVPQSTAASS

CDK9 = target: T5, CDK9 (Homo sapiens, UniProt P50750); test: KINOMEscan; format: binding; conditions: 2000 nM; read-out: Percent Control
T5 construct: purchased DiscoverX (Eurofins) KINOMEscan / scanEDGE, inferred from the naming style
T5 sequence (P50750 whole entry): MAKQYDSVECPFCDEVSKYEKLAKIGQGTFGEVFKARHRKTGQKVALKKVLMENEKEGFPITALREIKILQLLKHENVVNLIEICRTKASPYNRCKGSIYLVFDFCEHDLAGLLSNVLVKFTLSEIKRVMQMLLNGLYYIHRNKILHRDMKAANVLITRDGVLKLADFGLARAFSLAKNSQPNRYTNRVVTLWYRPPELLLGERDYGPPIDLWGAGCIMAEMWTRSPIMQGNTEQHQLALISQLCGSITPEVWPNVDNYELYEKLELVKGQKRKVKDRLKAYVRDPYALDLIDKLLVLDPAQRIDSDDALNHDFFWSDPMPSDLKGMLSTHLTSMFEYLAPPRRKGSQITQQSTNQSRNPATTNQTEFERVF

ERK1 = target: T6, ERK1 (Homo sapiens, UniProt P27361); test: KINOMEscan; format: binding; conditions: 2000 nM; read-out: Percent Control
T6 construct: purchased DiscoverX (Eurofins) KINOMEscan / scanEDGE, inferred from the naming style
T6 sequence (P27361 whole entry): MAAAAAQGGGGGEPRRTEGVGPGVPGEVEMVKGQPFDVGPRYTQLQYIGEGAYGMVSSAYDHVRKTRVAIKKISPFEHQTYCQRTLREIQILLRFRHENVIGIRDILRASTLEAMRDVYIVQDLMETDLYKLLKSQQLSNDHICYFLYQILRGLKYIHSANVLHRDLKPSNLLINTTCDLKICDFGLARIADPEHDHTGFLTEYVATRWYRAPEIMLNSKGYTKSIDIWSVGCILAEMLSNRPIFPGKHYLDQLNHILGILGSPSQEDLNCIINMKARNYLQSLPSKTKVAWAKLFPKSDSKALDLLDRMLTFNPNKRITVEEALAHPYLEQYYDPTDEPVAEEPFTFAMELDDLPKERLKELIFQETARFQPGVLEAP

CSNK1G2 = target: T7, CSNK1G2 (Homo sapiens, UniProt P78368); test: KINOMEscan; format: binding; conditions: 2000 nM; read-out: Percent Control
T7 construct: purchased DiscoverX (Eurofins) KINOMEscan / scanEDGE, inferred from the naming style
T7 sequence (P78368 whole entry): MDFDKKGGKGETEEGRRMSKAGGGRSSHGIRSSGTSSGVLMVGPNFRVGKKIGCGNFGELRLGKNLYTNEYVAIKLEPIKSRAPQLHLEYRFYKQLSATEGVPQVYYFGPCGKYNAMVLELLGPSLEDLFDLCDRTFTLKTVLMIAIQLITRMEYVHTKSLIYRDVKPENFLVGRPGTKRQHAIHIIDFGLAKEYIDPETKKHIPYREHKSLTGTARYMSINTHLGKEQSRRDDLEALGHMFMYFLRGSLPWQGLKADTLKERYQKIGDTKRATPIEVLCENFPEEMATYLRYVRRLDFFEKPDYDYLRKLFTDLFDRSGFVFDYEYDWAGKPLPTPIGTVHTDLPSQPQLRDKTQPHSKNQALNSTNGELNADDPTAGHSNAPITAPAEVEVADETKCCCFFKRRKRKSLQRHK

CDK2 = target: T8, CDK2 (Homo sapiens, UniProt P24941); test: KINOMEscan; format: binding; conditions: 2000 nM; read-out: Percent Control
T8 construct: purchased DiscoverX (Eurofins) KINOMEscan / scanEDGE, inferred from the naming style

U2OS cells [2] = test: Intracellular dNTP measurement (HIV-1 RT-based); format: cell-based; conditions: 4 h and 24 h, relative to DMSO
Procedure: HIV-1 RT-based dNTP assay[55] was used to quantify dNTP levels in U2OS cells upon indicated treatment and time points. Briefly, cells were trypsinized and counted before dNTPs extraction by 60% methanol solution, the dried dNTP samples were resuspended with water, and then RT-based primer extension reaction was performed to determine the amounts of dNTPs. Obtained dNTP amounts were normalized to 1 × 10^6 cells, and dNTP levels were related to control treatment with DMSO.

U2OS cells [3] = test: EdU incorporation in G2/M phase upon IR, flow cytometry; format: cell-based; conditions: 10 μM 6 h prior to IR 6 Gy
U2OS cells [4] = test: DNA fiber assay; format: cell-based; conditions: 10 μM
Procedure: 1 × 10^5 cells were seeded into 6-well plates, 24 h later cells were treated with the indicated inhibitors or nucleosides, and 24 h later DNA was labeled with 25 μM CldU (Sigma, C6891) in pre-warmed DMEM for 20 min, washed and then labeled with 250 μM IdU (Sigma I7125) in pre-warmed DMEM for 20 min, before harvesting by scraping in cold PBS. Harvested cells were diluted to 1 × 10^6 cells/mL, spreading and staining was performed as described previously described. Fluorescence images were captured using a Zeiss LSM 780 inverted confocal microscope using a 63 × 1.4 oil immersion objective, excitation wavelengths of 488 and 555 nm, and analyzed using the ImageJ software. At least 300 unidirectional forks labeled with both CldU and IdU were measured for every condition.

U2OS cells [5] = test: EdU labeling (DNA synthesis); format: cell-based; conditions: absence of IR
Procedure: U2OS cells were seeded on sterilized slides and treated with 10 or 30 μM of 757 for 6 h, or 2 mM of hydroxyurea (HU) for 3 h (DMSO was used as control vehicle). Last 40 min of treatment, 10 μM of the thymidine analogue 5-ethynyl-2′-deoxyuridine (EdU) (Sigma Aldrich, catalog no. 1T511285) was added; cells were washed with PBS and then fixed with paraformaldehyde 4% and sucrose 2%. For the detection of incorporated EdU, the Click IT reaction was performed in accordance with the supplier’s recommendations (Life Technologies/ThermoFisher Scientific). Images were acquired with a Zeiss LSM 780 microscope using a 40× oil immersion lens and processed in ImageJ and CellProfiler (version 2.2.0).

T1 sequence (P36888 27-993): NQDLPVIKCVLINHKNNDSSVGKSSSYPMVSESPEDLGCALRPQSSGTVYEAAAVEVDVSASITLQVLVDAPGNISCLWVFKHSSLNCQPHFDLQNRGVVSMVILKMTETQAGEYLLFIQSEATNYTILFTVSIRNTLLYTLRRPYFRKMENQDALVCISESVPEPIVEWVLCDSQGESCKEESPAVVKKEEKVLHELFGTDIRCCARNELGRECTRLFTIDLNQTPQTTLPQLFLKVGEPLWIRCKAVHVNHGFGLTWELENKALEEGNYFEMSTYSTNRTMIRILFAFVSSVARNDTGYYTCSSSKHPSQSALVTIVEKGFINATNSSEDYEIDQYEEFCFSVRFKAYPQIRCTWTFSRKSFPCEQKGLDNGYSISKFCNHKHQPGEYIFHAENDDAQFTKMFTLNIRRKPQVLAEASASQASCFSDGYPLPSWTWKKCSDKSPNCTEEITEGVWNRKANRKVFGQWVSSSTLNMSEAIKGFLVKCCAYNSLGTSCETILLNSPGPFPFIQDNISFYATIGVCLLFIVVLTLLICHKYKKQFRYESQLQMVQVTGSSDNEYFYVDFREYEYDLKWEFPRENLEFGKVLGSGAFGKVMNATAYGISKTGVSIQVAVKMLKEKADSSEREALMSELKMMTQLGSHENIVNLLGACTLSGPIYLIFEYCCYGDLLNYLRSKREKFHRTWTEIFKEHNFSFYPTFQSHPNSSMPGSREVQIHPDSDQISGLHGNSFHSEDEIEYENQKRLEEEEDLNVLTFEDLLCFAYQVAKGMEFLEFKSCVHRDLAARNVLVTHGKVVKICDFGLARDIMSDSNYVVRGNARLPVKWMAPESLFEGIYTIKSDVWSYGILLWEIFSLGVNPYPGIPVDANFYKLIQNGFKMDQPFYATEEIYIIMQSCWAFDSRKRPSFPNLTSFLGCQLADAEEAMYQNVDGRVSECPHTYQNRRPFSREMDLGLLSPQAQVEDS

Structure (SMILES)	remaining binding at 2 µM (FLT3) [%]	IC50 (PFKFB4; ADP-GLO assay) [µM]	selectivity window PFKFB3 versus PFKFB4 (PFKFB4; ratio of IC50 values)	potency for PFKFB3 by isothermal titration calorimetry (in words) (PFKFB3)	remaining binding at 2 µM (ABL1-phosphorylated) [%]	remaining binding at 2 µM [1] [%]	remaining binding at 2 µM (DYRK1B) [%]	remaining binding at 2 µM (CDK9) [%]	remaining binding at 2 µM (ERK1) [%]	remaining binding at 2 µM (CSNK1G2) [%]	remaining binding at 2 µM (CDK2) [%]	decrease of all four dNTPs (U2OS cells [2])	IR-induced increase in EdU-positive cell population in G2/M phase (in words) (U2OS cells [3])	incorporation of CldU and IdU / replication fork speed (in words) (U2OS cells [4])	EdU intensity per cell in EdU-positive population (in words) (U2OS cells [5])
O=C(O)c1ccc(NS(=O)(=O)c2cccc(-c3cc(F)ccc3O)c2)cc1O [KAN0438241, 4-{[(5′-Fluoro-2′-hydroxybiphenyl-3-yl)sulfonyl]amino}-2-hydroxybenzoic acid]	94	3.6	about 20 fold	sub-µM potency	96	100	86	100	99	97	100				
O=C(OCCO)c1ccc(NS(=O)(=O)c2cccc(-c3cc(F)ccc3O)c2)cc1O [KAN0438757, 2-Hydroxyethyl-4-{[(5′-fluoro-2′-hydroxybiphenyl-3-yl)sulfonyl]amino}-2-hydroxybenzoate]												50–75%	impaired	severely decreased	decreased EdU intensity per cell
